Test results taken from the supplement of paper PMC4121296.
± gives the standard deviation of the averaged measurements.

Legend:
Details in all cases: exposure: 5-72 hpf
[1] = system: Danio rerio embryo (fli1:egfp); test: heart rate at 72 hpf (beats per minute); higher = faster heart rate
Experimental: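 fli1:egfp zebrafish embryos exposed 5-72 hpf to chemical (0.05-50 µM, 0.1% DMSO) in 384-well plates; heart rate at 72 hpf quantified from stream acquisitions by semi-automated MetaXpress journal (peak counting); only embryos in concentrations passing survival/body-length criteria analyzed.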

[2] = system: Danio rerio embryo (fli1:egfp); test: body length at 72 hpf (µm); higher = longer body (less growth inhibition)
Experimental: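 Transgenic fli1:egfp zebrafish embryos (one per well, 384-well plate) exposed statically from 5 to 72 hpf at 28 °C to chemical (0.05-50 µM, 0.1% DMSO); at 72 hpf anesthetized and imaged on ImageXpress; body length of live, hatched, correctly oriented embryos measured by automated MetaXpress journal. Dead/unhatched/misoriented embryos have no value.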

[3] = system: Danio rerio embryo (fli1:egfp); test: pericardial area at 72 hpf (image area units (not stated)); higher = larger pericardial area (edema)
Experimental: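 fli1:egfp zebrafish embryos exposed 5-72 hpf to chemical (0.05-50 µM, 0.1% DMSO); pericardial area at 72 hpf measured by semi-automated MetaXpress journal (increase indicates edema).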

[4] = system: Danio rerio embryo (fli1:egfp); test: arterial (dorsal aorta) circulation score at 72 hpf (normalized DA-Max (arbitrary units)); higher = more circulation
Experimental: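 fli1:egfp zebrafish embryos exposed 5-72 hpf to chemical (0.05-50 µM, 0.1% DMSO); arterial circulation at 72 hpf quantified from stream acquisitions of the dorsal aorta by FFT-based analysis (DA-Max, normalized dorsal aorta signal); only concentrations passing survival/body-length criteria analyzed.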

[5] = system: Danio rerio embryo (fli1:egfp); test: intersegmental vessel area normalized to body length at 72 hpf (ISV area / body length (normalized units)); higher = more vessel area
Experimental: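 fli1:egfp zebrafish embryos exposed 5-72 hpf to chemical (0.05-50 µM, 0.1% DMSO); intersegmental vessel (ISV) eGFP area quantified by MetaXpress journal at 72 hpf and normalized to body length.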

CCCCSP(=O)(SCCCC)SCCCC [Tribufos]
Details	arterial, [4]	body length at 72 hpf, [2]	heart rate at 72 hpf, [1]	intersegmental vessel area normalized, [5]	pericardial area at 72 hpf, [3]
0.05 µM	11.1 ± 4.6	2900 ± 120	166 ± 20	79.6 ± 17	13400 ± 4400
0.098 µM	14.1 ± 3.2	2950 ± 130	161 ± 16	84.8 ± 18	13600 ± 4500
0.195 µM	14.9 ± 3.9	2990 ± 120	182 ± 52	92.3 ± 15	14700 ± 4800
0.39 µM	15.4 ± 6.4	2940 ± 140	169 ± 14	83.8 ± 20	13700 ± 3700
0.78 µM	14.8 ± 6.2	2940 ± 110	167 ± 17	86 ± 25	14600 ± 4000
1.56 µM	16.1 ± 6.3	2910 ± 150	164 ± 17	87.5 ± 20	14200 ± 3800
3.125 µM	14.5 ± 4	2980 ± 76	172 ± 21	81.8 ± 15	13300 ± 2100
6.25 µM	15 ± 5.1	2970 ± 100	176 ± 24	94.4 ± 13	15200 ± 3800
12.5 µM	13.9 ± 4.5	2870 ± 130	166 ± 26	81.3 ± 18	13400 ± 4400

CO/N=C(/C(=O)OC)c1ccccc1CO/N=C(\C)c1cccc(C(F)(F)F)c1 [Trifloxystrobin]
Details	arterial, [4]	body length at 72 hpf, [2]	heart rate at 72 hpf, [1]	intersegmental vessel area normalized, [5]	pericardial area at 72 hpf, [3]
0.05 µM	12.1 ± 5	2950 ± 110	172 ± 15	71 ± 20	12800 ± 4600
0.098 µM	11.6 ± 3.9	3060 ± 110	171 ± 15	73.5 ± 24	10600 ± 3000
0.195 µM	15.7 ± 3.6	3030 ± 120	167 ± 21	70.2 ± 23	12300 ± 3200
0.39 µM	15 ± 5.5	2970 ± 130	173 ± 33	67.6 ± 21	12200 ± 3800
0.78 µM	14.9 ± 4.8	3000 ± 110	166 ± 12	68.9 ± 20	13900 ± 4900
